# Test results as given in patent US8299086B2, “Pyrimidine derivatives” (Actelion Pharmaceuticals Ltd., priority 2007, dated 2012).
# Target: recombinant human S1P1 receptor (Homo sapiens, UniProt P21453)
# Experiment: GTPγS assay to determine EC50 values
# Assay type: biochemical
# Conditions: 35S-GTPγS binding, membranes of CHO cells expressing recombinant human S1P1 receptor, pH 7.4
# Experimental: GTPγS assay to determine EC50 values
# GTPγS binding assays are performed in 96 well microtiter plates (Nunc, 442587) in a final volume of 200 μl, using membrane preparations of CHO cells expressing recombinant human S1P1 receptor. Assay conditions are 20 mM Hepes (Fluka, 54461), 100 mM NaCl (Fluka, 71378), 5 mM MgCl2 (Fluka, 63064), 0.1% BSA (Calbiochem, 126609), 1 μM GDP (Sigma, G-7127), 2.5% DMSO (Fluka, 41644), […] ^35S-GTPγS (Amersham Biosciences, SJ1320). The pH is 7.4. Test compounds are dissolved and diluted in 100% DMSO and pre-incubated at room temperature for 30 min in 150 μl of the above assay buffer, in the absence of ^35S-GTPγS. After addition of 50 μl of ^35S-GTPγS, the assay is incubated for 1 h at rt. The assay is terminated by transfer of the reaction mixture to a Multiscreen plate (Millipore, MAHFC1H60) using a cell harvester from Packard Biosciences, and the plates are washed with ice-cold 10 mM Na2HPO4/NaH2PO4 (70%/30%), dried, sealed at the bottom and, after addition of 25 μl MicroScint20 (Packard Biosciences, order#6013621), sealed on the top. Membrane-bound ^35S-GTPγS is measured with a TopCount from Packard Biosciences.
# EC50 is the concentration of agonist inducing 50% of the maximal specific ^35S-GTPγS binding. Specific binding is determined by subtracting non-specific binding from maximal binding. Maximal binding is the amount of cpm bound to the Multiscreen plate in the presence of 10 μM of S1P. Non-specific binding is the amount of binding in the absence of an agonist in the assay.
# Sequence of recombinant human S1P1 receptor (P21453 whole entry): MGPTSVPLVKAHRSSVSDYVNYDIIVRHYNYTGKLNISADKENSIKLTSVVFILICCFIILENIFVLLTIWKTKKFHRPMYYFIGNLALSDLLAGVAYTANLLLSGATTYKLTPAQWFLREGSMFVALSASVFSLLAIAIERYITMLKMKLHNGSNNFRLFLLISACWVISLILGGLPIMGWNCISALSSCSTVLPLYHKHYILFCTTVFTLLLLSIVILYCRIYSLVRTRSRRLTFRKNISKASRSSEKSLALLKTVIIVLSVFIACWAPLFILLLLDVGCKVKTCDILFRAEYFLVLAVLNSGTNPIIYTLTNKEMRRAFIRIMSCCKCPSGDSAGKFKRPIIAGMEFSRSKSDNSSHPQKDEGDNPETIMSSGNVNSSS
row,EC50 [nM],Structure (SMILES)
1,1.15,"CCNc1nc(C)cc(-c2nc(-c3cc(C)c(OC[C@@H](O)CNC(=O)CO)c(CC)c3)no2)n1 [Example 1, N—((S)-3-{2-Ethyl-4-[5-(2-ethylamino-6-methyl-pyrimidin-4-yl)-[1,2,4]oxadiazol-3-yl]-6-methyl-phenoxy}-2-hydroxy-propyl)-2-hydroxy-acetamide]"

# System: circulating lymphocytes
# Experiment: Assessment of in vivo efficacy: circulating lymphocytes after oral administration
# Parameters: species or system Wistar rats
# Conditions: Rattus norvegicus, Lymphocyte, po, 6 h, read-out: Lymphocyte counts
# Experimental: Assessment of In vivo Efficacy
# The efficacy of the compounds of formula (I) is assessed by measuring the circulating lymphocytes after oral administration of 3 to 30 mg/kg of a compound of formula (I) to normotensive male Wistar rats. The animals are housed in climate-controlled conditions with a 12 h-light/dark cycle, and have free access to normal rat chow and drinking water. Blood is collected before and 3, 6 and 24 h after drug administration. Full blood is subjected to hematology using Advia Hematology system (Bayer Diagnostics, Zurich, Switzerland).
# All data are presented as mean±SEM. Statistical analyses are performed by analysis of variance (ANOVA) using Statistica (StatSoft) and the Student-Newman-Keuls procedure for multiple comparisons. The null hypothesis is rejected when p<0.05.
row,Structure (SMILES),change in vivo at 10 mg/kg [%]
1,"COc1cc(-c2noc(-c3cc(C)nc(NC(C)C)n3)n2)cc(C)c1OC[C@@H](O)CNC(=O)CO [Example 51, 2-hydroxy-N—((S)-2-hydroxy-3-{4-[5-(2-isopropylamino-6-methyl-pyrimidin-4-yl)-[1,2,4]oxadiazol-3-yl]-2-methoxy-6-methyl-phenoxy}-propyl)-acetamide]",-61 ± 2
2,"CCc1cc(-c2noc(-c3cc(C)nc(NC(C)C)n3)n2)cc(C)c1OC[C@@H](O)CO [Example 59, (S)-3-{2-ethyl-4-[5-(2-isopropylamino-6-methyl-pyrimidin-4-yl)-[1,2,4]oxadiazol-3-yl]-6-methyl-phenoxy}-propane-1,2-diol]",-69 ± 2

# Same assay, conditions: Rattus norvegicus, Lymphocyte; 6 h after oral administration of 10 mg/kg to normotensive male Wistar rats, compared to animals treated with vehicle only; mean±SEM; read-out: Lymphocyte counts
row,Structure (SMILES),change in vivo at 10 mg/kg [%]
1,"CCN(CC)c1nc(C)cc(-c2nc(-c3cc(C)c(OCC(O)CNC(=O)CO)c(C)c3)no2)n1 (racemic) [Example 10, rac-N-(3-{4-[5-(2-Diethylamino-6-methyl-pyrimidin-4-yl)-[1,2,4]oxadiazol-3-yl]-2,6-dimethyl-phenoxy}-2-hydroxy-propyl)-2-hydroxy-acetamide]",-50 ± 2
2,"CCNc1nc(C)cc(-c2nc(-c3cc(C)c(OCC(O)CO)c(C)c3)no2)n1 (racemic) [Example 16, rac-3-{4-[5-(2-Ethylamino-6-methyl-pyrimidin-4-yl)-[1,2,4]oxadiazol-3-yl]-2,6-dimethyl-phenoxy}-propane-1,2-diol]",-74 ± 1
3,"Cc1cc(-c2nc(-c3cc(C)c(OCC(O)CO)c(C)c3)no2)nc(NCC(C)C)n1 (racemic) [Example 20, rac-3-{4-[5-(2-Isobutylamino-6-methyl-pyrimidin-4-yl)-[1,2,4]oxadiazol-3-yl]-2,6-dimethyl-phenoxy}-propane-1,2-diol]",-55 ± 1
4,"CCNc1nc(C)cc(-c2nc(-c3cc(C)c(OC[C@@H](O)CNC(=O)CO)c(CC)c3)no2)n1 [Example 1, N—((S)-3-{2-Ethyl-4-[5-(2-ethylamino-6-methyl-pyrimidin-4-yl)-[1,2,4]oxadiazol-3-yl]-6-methyl-phenoxy}-2-hydroxy-propyl)-2-hydroxy-acetamide]",-70 ± 3
5,"CCc1cc(-c2noc(-c3cc(C)nc(N(CC)CC)n3)n2)cc(C)c1OC[C@@H](O)CNC(=O)CO [Example 3, N—((S)-3-{4-[5-(2-Diethylamino-6-methyl-pyrimidin-4-yl)-[1,2,4]oxadiazol-3-yl]-2-ethyl-6-methyl-phenoxy}-2-hydroxy-propyl)-2-hydroxy-acetamide]",-70 ± 2
6,"CCc1cc(-c2noc(-c3cc(C)nc(N(C)CC(C)C)n3)n2)cc(C)c1OC[C@@H](O)CNC(=O)CO [Example 29, N—[(S)-3-(2-ethyl-4-{5-[2-(isobutyl-methyl-amino)-6-methyl-pyrimidin-4-yl]-[1,2,4]oxadiazol-3-yl}-6-methyl-phenoxy)-2-hydroxy-propyl]-2-hydroxy-acetamide]",-73 ± 2
7,"CCc1cc(-c2noc(-c3cc(C)nc(NCC4CC4)n3)n2)cc(C)c1OC[C@@H](O)CNC(=O)CO [Example 32, N—[(S)-3-(4-{5-[2-(cyclopropylmethyl-amino)-6-methyl-pyrimidin-4-yl]-[1,2,4]oxadiazol-3-yl}-2-ethyl-6-methyl-phenoxy)-2-hydroxy-propyl]-2-hydroxy-acetamide]",-58 ± 1
8,"CCNc1nc(CC)cc(-c2nc(-c3cc(C)c(OC[C@@H](O)CNC(=O)CO)c(CC)c3)no2)n1 [Example 33, N—((S)-3-{2-ethyl-4-[5-(6-ethyl-2-ethylamino-pyrimidin-4-yl)-[1,2,4]oxadiazol-3-yl]-6-methyl-phenoxy}-2-hydroxy-propyl)-2-hydroxy-acetamide]",-65 ± 2
9,"CCc1cc(-c2noc(-c3cc(C)nc(OCC(C)C)n3)n2)cc(C)c1OC[C@@H](O)CNC(=O)CO [Example 40, N—((S)-3-{2-ethyl-4-[5-(2-isobutoxy-6-methyl-pyrimidin-4-yl)-[1,2,4]oxadiazol-3-yl]-6-methyl-phenoxy}-2-hydroxy-propyl)-2-hydroxy-acetamide]",-69 ± 2
10,"CCNc1nc(CC)cc(-c2nc(-c3cc(C)c(OC[C@@H](O)CO)c(CC)c3)no2)n1 [Example 65, (S)-3-{2-ethyl-4-[5-(6-ethyl-2-ethylamino-pyrimidin-4-yl)-[1,2,4]oxadiazol-3-yl]-6-methyl-phenoxy}-propane-1,2-diol]",-60 ± 4
11,"CCc1cc(-c2nc(-c3cc(C)nc(NC(C)C)n3)no2)cc(C)c1OC[C@@H](O)CNC(=O)CO [Example 85, (S)—N-(3-{2-Ethyl-4-[3-(2-isopropylamino-6-methyl-pyrimidin-4-yl)-[1,2,4]oxadiazol-5-yl]-6-methyl-phenoxy}-2-hydroxy-propyl)-2-hydroxy-acetamide]",-68 ± 1
12,"CCc1cc(-c2noc(-c3cc(C)nc(NC(C)C)n3)n2)cc(C)c1CCC(=O)NCCO [Example 138, 3-{2-ethyl-4-[5-(2-isopropylamino-6-methyl-pyrimidin-4-yl)-[1,2,4]oxadiazol-3-yl]-6-methyl-phenyl}-N-(2-hydroxy-ethyl)-propionamide]",-74 ± 1
